Measurements reported in patent US5135849A, “In-vitro methods for identifying compositions which are agonists and antagonists of androgens” (priority 1989, dated 1992).

Experiments:
LNCaP cells [1] = assay: Proliferation rate (doubling time) of LNCaP cells in 10% CDHS; format: cell-based, human; conditions: compared with 5α-DHT
Protocol: 8. To obtain reproducible, accurate, and reliable data consistently using this protocol, a series of quality assurance measures should be employed. […] These goals are achieved using the optimal 5-7 day incubation period. […] For this innoculum, cells are harvested every 24-48 hours (preferably as triplicate samples) until the entire 5-7 day incubation period expires. A good estimate of the proliferation rate is the mean generation time, "tD ". tD is calculated from the equation α=1/txln Ct /Co , where Co is the initial cell number, Ct is the cell number at time-t, and α is the instantaneous cell proliferation constant (tD is the value ln Ct /Co x would have when Ct =2Co) "tD " is expressed in time units, i.e., hr. The slopes of the different growth curves are calculated by fitting the experimental data to a straight line by regression analysis of the pairs ln cell numbers/time. to is defined as the moment at which the seeding medium is replaced by the maintaining medium.
The inhibitory effect of CD human sera was not instantaneous; at the end of 3 to 4 days the population increase was halted and remained stable for up to 30 days without media changes.

LNCaP cells [2] = assay: Phase 1 protocol to identify androgen agonist properties (LNCaP cell proliferation in CDHS medium); format: cell-based, human; conditions: for CHARACTERISTICS: classification from Phase 1 and Phase 2 protocols; for PHASE 1 CELL COUNT: final cell number per well at the optimal test conc., 10% CDHS
Excerpt: This protocol measures the potential agonistic properties of the substance under test. All manipulations are to be carried out under sterile conditions using disposable plastic tissue culture multiwell plates with all manipulations preferrably being performed in a tissue culture hood.
1. The cell line of choice is the LNCaP-FGC cell culture, an androgen-sensitive prostate tumor cell line. The LNaP cell line is routinely grown in 5% fetal bovine serum--supplemented Dulbecco's modified Eagle minimal essential medium (hereinafter "5% FBS/DME"), at 37° C. in a 95% air--5% CO2 atmosphere.
2. The cultured cells growing in 5% FBS/DME are harvested by treatment with trypsin (1:250)--EDTA (0.2%). The cells are detached by brief exposure to trypsin for about two minutes. To avoid excessive proteolysis, the reaction is quenched by addition of equal volumes of 5% FBS/DME. The resulting cell suspension is collected into a sterile centrifuge tube and resuspended by pipetting gently. The aliquots of this cell suspension thus obtained are dispersed by means of a Skatron dispenser into individual wells containing the seedling medium (1 ml of 5% FBS/DME per well) of a multiwell plate. Each final prepared suspension preferably contains 50,000 cells in a volume of 1.0 ml. It is desirable that the number of cells be counted and verified by means of a Coulter Counter (Coulter Electronics, Hialeah, FL).
The number of wells in each plate will correspond to the number of concentrations per test substances to be evaluated and thus is merely a question of choice or convenience to the user. Into each well, 25 microliter (hereinafter "ul") aliquots of the prepared cell suspension are added using a 1.0 ml syringe fitted with a 19 gauge needle attached to a repetitive Dunn pipetter (Skatron Dispenser). The microtiter plate is then gently shaken to avoid unequal cell distribution within each individual well. The seeded cells are then allowed to attach to the plastic surface of the well proper over a period of 24-72 hours' duration after which the fluid is changed to the experimental maintaining medium.
3 At the time of test, all the seeded cells in each well of the multiwell plate receive 10% heat inactivated--charcoal-dextran human stripped serum (CDHS) in DME at a volume of 0.9 ml per well. Although higher concentrations of CDHS may be utilized up to and including 40% concentrations, the 10% concentration is most preferred.
5. To the other prepared (seeded) wells, 100 ul of the test substance to be evaluated is added as a 10X stock solution to achieve final concentrations ranging from 10^-5 M to at least 10^-12 M. The substance under test is preferably prepared as a stock solution in ethanol, most preferrably as a 10^-3 M solution. All dilutions from the stock preparation are made using DME. The ethanol concentration in the culture medium should be kept below […] by volume. This preparative technique and precaution avoids the need to filter the various volumes of test substance to achieve sterility. This is particularly valuable because steroidal compositions are known to become adsorbed to the commercially obtained filter membranes used for sterilization. The addition of the test substance in appropriate concentrations to the cultured cells and the maintaining medium forms a series of individual reaction mixtures, each of which is varied only by the concentration of the test substance present in the well.
6. After the series of individual reaction mixtures are formed, all of the cultured cells under test in each well of the microtiter plate are incubated at 37° C. preferably in an atmosphere of 5% CO2 /95% air under saturating humidity. During this incubation time, it is desired and preferred that the cultured cells employed in the test be maintained in an atmosphere most advantageous for survival and growth of that cell line. The incubation period preferably is in the range of from 5 to 7 days' duration.

LNCaP cells [3] = assay: Phase 2 protocol for androgen antagonistic properties (LNCaP proliferation with 3×10^-10 M 5α-DHT plus test substance); conditions: Phase 2 protocol
androgen receptor = molecular target: T1, androgen receptor (Homo sapiens, UniProt P10275, T878A); assay: Competition for androgen receptors with 3H-testosterone in LNCaP cytosol-nuclear extracts (RBA); format: binding; conditions: Table II, 5α-DHT = 100; 6×10^-9 M 3H-testosterone
T1 construct: the presence of specific androgen receptors in LNCaP cells; endogenous in cells; extract or intact cells for the saturation analysis
T1 sequence (P10275 whole entry T878A): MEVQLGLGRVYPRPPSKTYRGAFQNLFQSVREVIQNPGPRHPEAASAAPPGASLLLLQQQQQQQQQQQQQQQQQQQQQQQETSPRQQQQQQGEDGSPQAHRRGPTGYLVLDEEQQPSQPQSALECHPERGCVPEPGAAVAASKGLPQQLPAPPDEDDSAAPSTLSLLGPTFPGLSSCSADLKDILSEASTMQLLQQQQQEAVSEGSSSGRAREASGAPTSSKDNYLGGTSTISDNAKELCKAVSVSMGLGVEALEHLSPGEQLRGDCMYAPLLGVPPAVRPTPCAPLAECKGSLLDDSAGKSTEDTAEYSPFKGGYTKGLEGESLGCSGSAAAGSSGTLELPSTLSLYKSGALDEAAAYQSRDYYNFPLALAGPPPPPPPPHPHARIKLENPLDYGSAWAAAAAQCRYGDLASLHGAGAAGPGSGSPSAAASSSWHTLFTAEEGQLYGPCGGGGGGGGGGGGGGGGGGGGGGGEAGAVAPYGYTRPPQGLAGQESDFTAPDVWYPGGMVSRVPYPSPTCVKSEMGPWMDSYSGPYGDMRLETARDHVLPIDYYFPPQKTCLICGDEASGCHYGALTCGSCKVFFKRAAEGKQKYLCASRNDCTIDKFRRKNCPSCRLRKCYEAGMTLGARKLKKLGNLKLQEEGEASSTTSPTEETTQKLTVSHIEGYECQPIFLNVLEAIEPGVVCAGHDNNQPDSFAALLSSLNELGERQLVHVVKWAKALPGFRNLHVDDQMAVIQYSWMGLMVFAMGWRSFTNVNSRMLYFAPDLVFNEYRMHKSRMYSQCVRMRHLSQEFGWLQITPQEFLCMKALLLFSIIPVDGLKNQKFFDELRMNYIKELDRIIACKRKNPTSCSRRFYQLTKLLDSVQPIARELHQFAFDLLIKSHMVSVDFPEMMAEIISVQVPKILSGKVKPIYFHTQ
Protocol: (§1) Steroid receptors measurement: The presence of intracellular sex steroid binding proteins was investigated in whole cell extracts as well as in intact cells. Cytosolic and nuclear extracts were obtained after centrifugation (105,000 g, 45 min.) of a sonicated cellular suspension in TKE buffer (10 mM Tris, 500 mM KCl, 0.5 mM EDTA, pH 7.4). Aliquots of this extract were incubated for 18 hours at 4° C. with increasing concentrations (2×10^- M to 2×10^-8 M) of labelled steroids, with and without a 200-fold excess of the corresponding unlabelled steroid. Bound and free fractions were separated by dextran-coated charcoal adsorption. Intact cells grown in monolayer culture were assayed for specific steroid binding [Olea-Serrano et al., Eur. J. Cancer Clin. Oncol. 21:965-973 (1983)]. Briefly, the cells were incubated in 12-well plates during 50 minutes at 37° C. in DME containing the labelled steroid with and without excess of cold competitor. The range of concentrations used was the same as that in the cytosolic-nuclear extract assay. […] The intracellular radioactivity was extracted with ethanol after ice-cold PBS washing. In both types of experiments, Scatchard analysis of the saturation data was used to quantify the maximal binding capacity (Bmax) and the affinity parameters (dissociation constant, Kd) using the SCAFIT program [Munson et al., Anal. Biochem. 107:220-239 (1980)].
Cytosol-nuclear extracts were used to study competition for androgen receptors. […] The relative binding affinity (RBA) was calculated from the equation: […]

[4] = test system: 3H-E2 binding in LNCaP cells; assay: Competition with 3H-E2 binding in LNCaP cells; set-up: species or system human
Protocol: as §1

Row | SMILES | population doubling time, in words (LNCaP cells [1]) | CHARACTERISTICS (LNCaP cells [2]) | CHARACTERISTICS (LNCaP cells [2]; listed as estradiol-17β) | PHASE 1 CELL COUNT (LNCaP cells [2]) | antagonistic activity, in words (LNCaP cells [3]) | RBA (relative binding affinity to the androgen receptor) (androgen receptor) | competition with 3H-E2 binding, in words [4]
1 | C[C@]12CC[C@@H]3c4ccc(O)cc4CC[C@H]3[C@@H]1CC[C@@H]2O [estradiol 17β, estra-1,3,5(10)-triene-3,17-diol] | slightly shorter population doubling time | full agonist | full agonists | 4.0 × 10^5 | no antagonistic activity | – | –
2 | C#C[C@]1(O)CC[C@H]2[C@@H]3CCc4cc(O)ccc4[C@H]3[C@@H](OC)C[C@@]21C [R2858, 11β-methoxy-19-nor-17a-1,3,5(10)-trien-20-yne-3,17-diol] | – | – | – | 5 × 10^4 | – | < 0.01 | did not compete
